# Measured values published in patent US9394331B2, “2′-spiro-nucleosides and derivatives thereof useful for treating hepatitis C virus and dengue virus infections” (priority 2010, dated 2016).
# Where two headings read alike, the source gives them in different places.
# Columns and labels:
# [1] = system: HCV replicon; assay: HCV replicon assay (Clone A cells and ET-lunet cells, HCV RNA by real time PCR); format: cell-based, hepatitis C virus; details: Hepatitis C virus; for EC90: read-out: EC90, anti-HCV 1b activity
# Protocol: HCV replicon assay. HCV replicon assays using Clone A cells and ET-lunet cells were performed as described previously. L. J. Stuyver et al. Antimicrob. Agents Chemother. 2004, 48, 651-654. Briefly, Clone A cells and ET-lunet cells were seeded at a density of 1500 and 3000 cells per well in a 96-well plate, respectively. Test compounds serially diluted in culture medium without G418 were added to cells. Plates were incubated at 37° C. in a 5% CO2 atmosphere for 4 days. Inhibition of HCV RNA replication was determined by quantitative real time PCR. See, e.g., L. J. Stuyver et al. Antiviral Chem. Chemother. 2006, 17, 79-87.
# To express the antiviral effectiveness of a compound, the threshold RT-PCR cycle of the test compound was subtracted from the average threshold RT-PCR cycle of the no-drug control (ΔCtHCV). A ΔCt of 3.3 equals a 1-log 10 reduction (equal to the 90% effective concentration [EC90]) in replicon RNA levels. The cytotoxicity of the test compound could also be expressed by calculating the ΔCtrRNA values. The ΔΔCt specificity parameter could then be introduced (ΔCtHCV-ΔCtrRNA), in which the levels of HCV RNA are normalized for the rRNA levels and calibrated against the no-drug control.
# [2] = Cell cytotoxicity assay (MTS); format: cell-based; details: human
# Protocol: Cell cytotoxicity assays. Each compound (serially diluted from 100 μM) was added to Huh7 (2×10^3 cells/well), HepG2 (2×10^3 cells/well), BxPC3 (2×10^3 cells/well), or CEM (5×10^3 cells/well) cells and allowed to incubate for 8 days at 37° C. A medium only control was used to determine the minimum absorbance value […]. At the end of the growth period, MTS dye from the CellTiter 96 Aqueous One Solution Cell Proliferation Assay kit (Promega) was added to each well and the plate was incubated for an additional 2 hours. The absorbance at 490 nm was read with a Victor3 plate reader (Perkin Elmer) using the medium only control wells as blanks. The 50% inhibition value (CC50) was determined by comparing the absorbance in wells containing cells and test compound to untreated cell control wells.
# [3] = system: Dengue 2 strain New Guinea C; assay: Dengue CPE assay; format: cell-based, Dengue virus 2; details: Table 6, BHK-21 cells, 3 days, 50% cells surviving, read-out: EC50, activity against dengue virus
# Protocol: Dengue CPE Assay. To measure cytopathic effect of Dengue virus 2, BHK-21 ([…], CCL-10 ATCC Manassas, Va.) cells were seeded at a density of 20,000 cells/well in a 96-well black/clear bottom plates (Becton Dickinson, Franklin Lakes, N.J.) one day prior to start of the assay and allowed to attach overnight in EMEM (ATCC Manassas, Va.) +10% FBS (Invitrogen, Carlsbad, Calif.) at 37° C. in a humidified 5% CO2 atmosphere. The next day, the medium was removed and the cells were infected with Dengue 2 strain New Guinea C (VR-1584, ATCC Manassas, Va.) at an MOI of 0.08 pfu/cell for two hours in 50 μL EMEM+2% FBS. For both the single point and dose response assays, compounds (2× concentration) were diluted in EMEM+2% FBS and 50 μL was added to infected cells without removing virus. Cells were incubated for 3 days at 37° C. in a humidified 5% CO2 atmosphere. The medium was aspirated and 50 μL of CellTiter-Glo (Promega, Madison, Wis.) was added to each well and read for 0.1 seconds on a Perkin Elmer Victor3 (Waltham, Mass.) plate reader. Percent survival was determined by subtracting the average value of infected control wells and normalizing to the non-infected wells. The effective concentration was calculated from the dose response data by forecasting 50% cells surviving with drug treatment.
# [4] = Cytotoxicity reported with the dengue assay; format: cell-based; details: Table 6; cell line not stated
# [5] = 96 h, Table 1, HCV replicon, 4 days, read-out: EC50, anti-HCV activity of selected nucleosides
# [6] = 96 h, Table 4, cyclic phosphates, diastereomeric mixtures, read-out: EC50, anti-HCV 1b activity
# [7] = 96 h, Table 4, cyclic phosphates, diastereomeric mixtures
# [8] = Table 3, HCV 1b replicon, read-out: EC50, anti-HCV 1b activity
# [9] = Table 3, cell line not stated, read-out: CC50
# [10] = Table 2, HCV 1b replicon, unit inferred, read-out: EC50, anti-HCV 1b activity
smiles,measurement,setting,value
"COc1nc(N)nc2c1ncn2[C@@H]1O[C@H](CO)[C@@H](O)[C@@]12CCCO2 [compound 62, (5S,6R,8R,9R)-6-(2-amino-6-methoxy-9H-purin-9-yl)-8-(hydroxymethyl)-1,7-dioxaspiro[4.4]nonan-9-ol]",EC50,[1]; [5],> 20 µM
COc1nc(N)nc2c1ncn2C1OC2COP(=O)(OC(C)C)O[C@H]2[C@]12CCO2 (stereo partly drawn) [compound 133],EC50,[1]; [6],> 20 µM
same,EC90,[1]; [7],> 20 µM
same,CC50 at 8 days,[2],> 20 µM
"Nc1ccn([C@@H]2O[C@H](CO)[C@@H](O)[C@]23CCO3)c(=O)n1 [compound 52, 4-amino-1-((4R,5R,7R,8R)-8-hydroxy-7-(hydroxymethyl)-1,6-dioxaspiro[3.4]octan-5-yl)pyrimidin-2(1H)-one]",EC50,[1]; [5],> 54.5 µM
"Nc1nc2c(ncn2[C@@H]2O[C@H](CO)[C@@H](O)[C@]23CCO3)c(=O)[nH]1 [compound 77, 2-amino-9-((4R,5R,7R,8R)-8-hydroxy-7-(hydroxymethyl)-1,6-dioxaspiro[3.4]octan-5-yl)-1H-purin-6(9H)-one]",EC50,[1]; [5],> 20 µM
COc1nc(N)nc2c1ncn2C1OC(COP(=O)(N[C@@H](C)C(=O)OCc2ccccc2)Oc2ccccc2)[C@@H](O)[C@]12CCO2 (stereo partly drawn) [compound 130],EC50,[1]; [8],8.65 µM
same,EC90,"[1]; Table 3, HCV 1b replicon",15.1 µM
same,CC50 at 8 days,[2]; [9],> 20 µM
same,EC50,[3],3.84 µM
same,CC50,[4],> 20 µM
COc1nc(N)nc2c1ncn2C1OC(COP(=O)(N[C@@H](C)C(=O)OCC(C)(C)C)Oc2cccc3ccccc23)[C@@H](O)[C@]12CCO2 (stereo partly drawn) [compound 123],EC50,[1]; [8],0.31 µM
same,EC90,"[1]; Table 3, HCV 1b replicon",0.853 µM
same,CC50 at 8 days,[2]; [9],> 20 µM
same,EC50,"[3]; Dengue virus, BHK-21, 72 h",1.74 µM
same,CC50,[4],> 20 µM
"COC(=O)[C@H](C)NP(=O)(OC[C@H]1O[C@@H](n2ccc(=O)[nH]c2=O)[C@@]2(CCO2)[C@@H]1O)Oc1ccccc1 (stereo partly drawn) [compound 117, (2S)-methyl 2-(((((4R,5R,7R,8R)-5-(2,4-dioxo-3,4-dihydropyrimidin-1 (2H)-yl)-8-hydroxy-1,6-dioxaspiro[3.4]octan-7-yl)methoxy)(phenoxy)phosphoryl)amino)propanoate]",EC50,[1]; [10],16.7 µM
"COc1nc(N)nc2c1ncn2[C@@H]1O[C@H](CO)[C@@H](O)[C@@]12CCO2 [compound 66, (4S,5R,7R,8R)-5-(2-amino-6-methoxy-9H-purin-9-yl)-7-(hydroxymethyl)-1,6-dioxaspiro[3.4]octan-8-ol]",EC50,[1]; [5],> 20 µM
"Nc1ccn([C@@H]2O[C@H](CO)[C@@H](O)[C@@]23CCO3)c(=O)n1 [compound 51, 4-amino-1-((4S,5R,7R,8R)-8-hydroxy-7-(hydroxymethyl)-1,6-dioxaspiro[3.4]octan-5-yl)pyrimidin-2(1H)-one]",EC50,[1]; [5],> 100 µM
"O=c1ccn([C@@H]2O[C@H](CO)[C@@H](O)[C@@]23CCO3)c(=O)[nH]1 [compound 36, 1-((4S,5R,7R,8R)-8-hydroxy-7-(hydroxymethyl)-1,6-dioxaspiro[3.4]octan-5-yl)pyrimidine-2,4(1H,3H)-dione]",EC50,[1]; [5],> 100 µM
"COc1nc(N)nc2c1ncn2[C@@H]1O[C@H](CO)[C@@H](O)[C@]12CCCO2 [compound 72, (5R,6R,8R,9R)-6-(2-amino-6-methoxy-9H-purin-9-yl)-8-(hydroxymethyl)-1,7-dioxaspiro[4.4]nonan-9-ol]",EC50,[1]; [5],> 20 µM
"O=c1ccn([C@@H]2O[C@H](CO)[C@@H](O)[C@@]23CCCO3)c(=O)[nH]1 [compound 32, 1-((5 S,6R,8R,9R)-9-hydroxy-8-(hydroxymethyl)-1,7-dioxaspiro[4.4]nonan-6-yl)pyrimidine-2,4(1H,3H)-dione]",EC50,[1]; [5],> 100 µM
"Nc1ccn([C@@H]2O[C@H](CO)[C@@H](O)[C@@]23CCCO3)c(=O)n1 [compound 50, 4-amino-1-((5S,6R,8R,9R)-9-hydroxy-8-(hydroxymethyl)-1,7-dioxaspiro[4.4]nonan-6-yl)pyrimidin-2(1H)-one]",EC50,[1]; [5],> 100 µM
"COC(=O)[C@H](C)NP(=O)(OC[C@H]1O[C@@H](n2ccc(=O)[nH]c2=O)[C@@]2(CCCO2)[C@@H]1O)Oc1ccccc1 (stereo partly drawn) [compound 116, (2S)-methyl 2-(((((5R,6R,8R,9R)-6-(2,4-dioxo-3,4-dihydropyrimidin-1 (2H)-yl)-9-hydroxy-1,7-dioxaspiro[4.4]nonan-8-yl)methoxy)(phenoxy)phosphoryl)amino)propanoate]",EC50,[1]; [10],28.3 µM
"Nc1ccn([C@@H]2O[C@H](CO)[C@@H](O)[C@]23CCCO3)c(=O)n1 [compound 49, 4-amino-1-((5R,6R,8R,9R)-9-hydroxy-8-(hydroxymethyl)-1,7-dioxaspiro[4.4]nonan-6-yl)pyrimidin-2(1H)-one]",EC50,[1]; [5],> 100 µM
"COC(=O)[C@H](C)NP(=O)(OC[C@H]1O[C@@H](n2cnc3c(OC)nc(N)nc32)[C@@]2(CCO2)[C@@H]1O)Oc1ccccc1 (stereo partly drawn) [compound 113, (2S)-methyl 2-(((((4R,5R,7R,8R)-5-(2-amino-6-methoxy-9H-purin-9-yl)-8-hydroxy-1,6-dioxaspiro[3.4]octan-7-yl)methoxy)(phenoxy)phosphoryl)amino)propanoate]",EC50,[1]; [10],1.55 µM
same,EC50,"[3]; Dengue virus, BHK-21, 72 h",6.23 µM
same,CC50,[4],> 20 µM
COc1nc(N)nc2c1ncn2C1OC2COP(=O)(OCC(C)(C)C)O[C@H]2[C@]12CCO2 (stereo partly drawn) [compound 132],EC50,[1]; [6],> 20 µM
same,EC90,[1]; [7],> 20 µM
same,CC50 at 8 days,[2],> 20 µM
COc1nc(N)nc2c1ncn2C1OC2COP(=O)(OC3CCCC3)O[C@H]2[C@]12CCO2 (stereo partly drawn) [compound 134],EC90,[1]; [7],> 20 µM
same,EC50,"[1]; Table 4, cyclic phosphates, diastereomeric mixtures, read-out: EC50, anti-HCV 1b activity",14 µM
same,CC50 at 8 days,[2],> 20 µM
"O=c1ccn([C@@H]2O[C@H](CO)[C@@H](O)[C@]23CCO3)c(=O)[nH]1 [compound 48, 1-((4R,5R,7R,8R)-8-hydroxy-7-(hydroxymethyl)-1,6-dioxaspiro[3.4]octan-5-yl)pyrimidine-2,4(1H,3H)-dione]",EC50,[1]; [5],> 100 µM
"COC(=O)[C@H](C)NP(=O)(OC[C@H]1O[C@@H](n2ccc(=O)[nH]c2=O)[C@]2(CCCO2)[C@@H]1O)Oc1ccccc1 (stereo partly drawn) [compound 114, (2S)-methyl 2-(((((5S,6R,8R,9R)-6-(2,4-dioxo-3,4-dihydropyrimidin-1 (2H)-yl)-9-hydroxy-1,7-dioxaspiro[4.4]nonan-8-yl)methoxy)(phenoxy)phosphoryl)amino)propanoate]",EC50,[1]; [10],20.6 µM
"COc1nc(N)nc2c1ncn2[C@@H]1O[C@H](CO)[C@@H](O)[C@]12CCO2 [compound 76, (4R,5R,7R,8R)-5-(2-amino-6-methoxy-9H-purin-9-yl)-7-(hydroxymethyl)-1,6-dioxaspiro[3.4]octan-8-ol]",EC50,[1]; [5],> 100 µM
"O=c1ccn([C@@H]2O[C@H](CO)[C@@H](O)[C@]23CCCO3)c(=O)[nH]1 [compound 44, 1-((5R,6R,8R,9R)-9-hydroxy-8-(hydroxymethyl)-1,7-dioxaspiro[4.4]nonan-6-yl)pyrimidine-2,4(1H,3H)-dione]",EC50,[1]; [5],> 100 µM
"COC(=O)[C@H](C)NP(=O)(OC[C@H]1O[C@@H](n2ccc(=O)[nH]c2=O)[C@]2(CCO2)[C@@H]1O)Oc1ccccc1 (stereo partly drawn) [compound 115, (2S)-methyl 2-(((((4S,5R,7R,8R)-5-(2,4-dioxo-3,4-dihydropyrimidin-1 (2H)-yl)-8-hydroxy-1,6-dioxaspiro[3.4]octan-7-yl)methoxy)(phenoxy)phosphoryl)amino)propanoate]",EC50,[1]; [10],28.5 µM
